In patent US20220267310A1, “QUINAZOLINE AND CINNOLINE DERIVATIVES AS DNA-PK INHIBITOR” (MEDSHINE DISCOVERY INC., priority 2019, published 2022):
Values joined by “and” are separate entries in the source; they are usually repeats but may differ in a detail not shown here. Equal entries are not always repeated.

What was measured:
[1] = system: human small cell lung cancer NCI-H69 cell subcutaneous xenograft tumor; assay: NCI-H69 subcutaneous xenograft, combination with etoposide, 22-day experiment (Table 7); format: in vivo, BALB/c nude mice; settings: for T/C (%) / TGI (%): 22nd day; for Tumor volume (mm^3) (0th day) / Tumor volume (mm^3) (22th day): average ± SEM
Protocol: Experiment example 3: in vivo pharmacodynamics of human small cell lung cancer NCI-H69 cell subcutaneous xenograft tumor BALB/c nude mouse model:
Experimental animals: Female BALB/c nude mice, 6-8 weeks old, weighing 15-22 grams; supplier: Shanghai Linchang Biotechnology Co., LTD. (Linchang, Shanghai)
Human small cell lung cancer NCI-H69 cells (ATCC, item number: HTB-119 and ECACC-95111733) were cultured in vitro in a culture condition of RPMI-1640 medium with 10% fetal bovine serum, 100 U/mL penicillin and 100 μg/mL streptomycin, incubated at 37° C. and 5% CO2. Conventional passage was carried out twice a week. When cell saturation was 80%-90% and the number reaches the requirement, cells were collected, counted and inoculated.
0.2 mL (10×10^6) NCI-H69 cells (with matrix glue, and volume ratio of 1:1) were subcutaneously inoculated into a right back of each mouse, and group administration was initiated when the average tumor volume reaches about 110-120 mm^3.
The tested compound was prepared as a 5 mg/mL clarified solution with 10% DMSO+50% polyethylene glycol 400+40% water as the solvent.
The experimental indicators refers to study whether tumor growth was inhibited, delayed, or cured. Tumor diameter was measured twice a week with a vernier caliper. The calculation formula of the tumor volume was V=0.5a×b^2, and a and b represent the long diameter and short diameter of the tumor, respectively.
The antitumor efficacy of the compound was evaluated by TGI (%) or relative tumor proliferation rate T/C (%). TGI (%) reflects the tumor growth inhibition rate. The calculation of TGI (%): TGI (%)=[1−(average tumor volume at the end of administration of a certain treatment group−average tumor volume at the beginning of administration of the treatment group)/(average tumor volume at the end of treatment in solvent control group−average tumor volume at the beginning of treatment in solvent control group)]×control group.
Relative tumor proliferation rate T/C (%): the calculation formula was as follows: T/C %=[…] TRTV/CRTV group (TRTV: treatment group RTV; CRTV: negative control group RTV). According to results of tumor measurement, Relative Tumor Volume (RTV) was calculated by the formula RTV=Vt/V0, where V0 was the average tumor volume measured in group administration (i.e., d0), and Vt was the average tumor volume measured in a certain single measurement. TRTV and CRTV collect data on the same day.
Statistic analysis includes an average value and a standard error (SEM) of tumor volume at each time point for each group. […] If there was no significant difference in F value, Dunnet (2-sided) method was applied to analysis. All data were analyzed using SPSS 17.0. P<0.05 was considered as having a significant difference.

PI3K (p120γ) = molecular target: T1, PI3K (p120γ) (Homo sapiens, UniProt P48736); assay: PI3K (p120γ) kinase inhibitory activity (HTRF); format: biochemical
T1 construct: Eurofins Pharma Discovery Service (contract assay)
Protocol: This experiment was tested at Eurofins Pharma Discovery Service, Reaction Biology Corp. (RBC)
[…] DNA-PK: Mg/ATP; GST-cMyc-p53; EDTA; Ser15 antibody; ATP: 10 μM; biotinylated phosphatidylinositol-3,4,5-triphosphate; GST label GRP1 PH domain; streptavidin and phycocyanin; europium-labelled monoclonal antibody against GST.
PI3K (p120γ) was incubated in a determination buffer containing phosphatidylinositol 4,5-diphosphate and Mg/ATP (density as required). The reaction was initiated by adding a mixture of Mg/ATP. After incubating at room temperature for 30 min, a termination solution containing EDTA and biotinylated phosphatidylinositol-3,4,5-triphosphate was added to terminate the reaction. Finally, a detection buffer (containing labeled anti-GST monoclonal antibody, PH domain of GRP1 with GST label and streptavidin and phycyanin and […]) was added. Then, the board was read in time-resolved fluorescence mode, and an HTRF signal was measured according to the formula HTRF=10000×(Em665 nm/Em620 nm).

[2] = 40 mg/kg group (+ etoposide 10 mg/kg, IP)
[3] = 40 mg/kg, PO, QD + etoposide 10 mg/kg, IP, 3-day administration, 4-day withdrawal
[4] = second Embodiment 19 group of Table 7, 40 mg/kg, PO, QD + etoposide 10 mg/kg, IP

T1 sequence (P48736 whole entry): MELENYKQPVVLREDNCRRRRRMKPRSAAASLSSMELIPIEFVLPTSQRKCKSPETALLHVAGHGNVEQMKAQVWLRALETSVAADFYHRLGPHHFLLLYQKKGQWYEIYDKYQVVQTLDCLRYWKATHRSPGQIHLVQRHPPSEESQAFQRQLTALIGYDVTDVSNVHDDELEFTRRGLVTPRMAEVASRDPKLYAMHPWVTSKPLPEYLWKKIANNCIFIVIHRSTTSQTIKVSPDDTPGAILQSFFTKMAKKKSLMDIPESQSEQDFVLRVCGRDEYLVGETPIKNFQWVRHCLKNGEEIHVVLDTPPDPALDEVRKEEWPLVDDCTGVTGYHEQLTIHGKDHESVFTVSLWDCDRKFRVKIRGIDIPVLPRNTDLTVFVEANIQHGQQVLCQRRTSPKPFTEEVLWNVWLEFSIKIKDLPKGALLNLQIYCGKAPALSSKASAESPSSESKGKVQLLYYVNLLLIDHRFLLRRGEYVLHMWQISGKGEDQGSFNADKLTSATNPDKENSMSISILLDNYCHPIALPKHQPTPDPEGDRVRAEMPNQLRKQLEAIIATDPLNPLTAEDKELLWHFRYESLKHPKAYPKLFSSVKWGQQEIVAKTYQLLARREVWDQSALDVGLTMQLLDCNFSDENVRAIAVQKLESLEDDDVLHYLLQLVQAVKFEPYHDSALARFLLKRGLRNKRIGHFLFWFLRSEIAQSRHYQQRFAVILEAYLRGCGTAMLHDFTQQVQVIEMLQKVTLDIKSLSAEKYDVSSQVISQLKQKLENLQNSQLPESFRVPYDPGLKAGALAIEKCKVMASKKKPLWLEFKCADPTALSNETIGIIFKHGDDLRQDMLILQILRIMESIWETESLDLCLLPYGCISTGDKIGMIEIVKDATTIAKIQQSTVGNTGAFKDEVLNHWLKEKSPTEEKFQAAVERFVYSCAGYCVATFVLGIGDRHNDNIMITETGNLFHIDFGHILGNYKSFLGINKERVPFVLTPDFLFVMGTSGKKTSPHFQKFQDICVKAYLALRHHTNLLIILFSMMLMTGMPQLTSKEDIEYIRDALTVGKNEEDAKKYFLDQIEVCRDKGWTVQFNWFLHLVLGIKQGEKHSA

Compound	Weight changes [1, 2] [%]	RTV (22th day) [1, 3]	T/C (%) [1, 3] [%]	TGI (%) [1, 3]	Tumor volume (mm^3) (0th day) [1, 3]	Tumor volume (mm^3) (22th day) [1, 3]	IC50 (PI3K (p120γ)) [µM]	Weight changes ([1]; 80 mg/kg group (+ etoposide 10 mg/kg, IP)) [%]	TGI ([1]; 80 mg/kg, PO, QD + etoposide 10 mg/kg, IP, 3-day administration, 4-day withdrawal) [%]	RTV (22th day) [1, 4]	Tumor volume (mm^3) (0th day) ([1]; second Embodiment 19 group of Table 7, 40 mg/kg, PO, QD + etoposide 10 mg/kg, IP, 3-day administration, 4-day withdrawal)	T/C (%) [1, 4] [%]	TGI (%) [1, 4] [%]	Tumor volume (mm^3) (22th day) [1, 4]
COc1ccc([C@@H](O)c2cc(-c3nncc4cc(N5CCOCC5)ccc34)c(F)cc2Cl)nn1 [Embodiment M3814, reference compound]	−16.00	2.96	34.40	74% and 74.21%	119 ± 13	352 ± 26	1.22	–	–	–	–	–	–	–
COc1ccc(C(O)c2cc(-c3cnnc4c(F)c(N5CCOCC5)cc(F)c34)c(F)cc2Cl)nn1 (single isomer, unassigned) [Embodiment 19]	−5.88	3.73	43.34	64% and 63.98%	119 ± 12	444 ± 34	9.15	0.13	80	2.51	119 ± 12	29.20	80.09	299 ± 31
